Source: patent US6730064B2, “Coated implantable medical device” (Cook Incorporated, priority 1998, dated 2004)

Experiments:
[1] = test system: porcine coronary in-stent restenosis model; experiment: Slow-release paclitaxel coated GR II stents versus control; type: in vivo; settings: 175-200 μg total drug
Description: Furthermore, the coating itself appears biocompatible.

[2] = test system: in-stent restenosis; experiment: Fast-release low-dose and high-dose paclitaxel-coated stents versus control; type: in vivo, porcine
[3] = test system: stented coronary arteries (in-stent restenosis); experiment: One-month pig studies, quantitative coronary angiography (QCA); type: in vivo, Juvenile domestic swine; settings: 1 month
Protocol: (§1) No other antiplatelet agents or anticoagulants were given.
(§2) Angiograms were recorded immediately before stent implantation, immediately after stent implantation and at 1 month follow-up. Immediately after the follow-up angiography, the hearts were excised and the coronary vasculature was perfusion fixed at physiologic pressure. The vessels were then processed to obtain histologic cross sections for morphometric analysis from proximal, middle and distal locations within each stent.
(§3) Computer assisted quantitative coronary angiography (QCA) analysis and histomorphometric analysis were performed on each stented artery. Qualitative histopathologic analysis was also performed, with each artery evaluated for both injury and inflammation.

[4] = test system: stented coronary arteries (in-stent restenosis); experiment: One-month pig studies, histomorphometric analysis; type: in vivo, Juvenile domestic swine; settings: 1-month F/U
Protocol: as §1, §2, §3

[5] = test system: stented coronary arteries; experiment: One-month pig studies, qualitative histopathologic analysis; type: in vivo, Juvenile domestic swine
Protocol: as §1, §2, §3

[6] = test system: pigs with stented coronary arteries; settings: in vivo
Description: (§4) Juvenile domestic swine received one stent in the left anterior descending coronary artery (LAD) and/or one stent in the left circumflex (LCX) or right coronary arteries (RCA). To account for differences in vessel diameter prior to stenting, the deployment pressure for each stent was adjusted to achieve a balloon-to-artery ratio (BAR) of approximately 1.1-1.2. The pigs were followed for 1 month after stent implantation.
(§5) The pigs were fed a standard high fiber diet without lipid or cholesterol supplementation. For antiplatelet effect, each pig was administered approximately 325 mg aspirin and 250 mg ticlopidine daily, starting at least 2 days prior to surgery and continuing until the end of the study. Each pig was also administered approximately 10,000 units heparin during stent implantation and approximately 10,000 units heparin during follow-up angiography. No other antiplatelet agents or anticoagulants were given.

[7] = test system: pigs with stented coronary arteries; experiment: One-month pig studies, premature deaths and safety
Description: as §4, §5

[8] = In-vitro flow system (10 ml/min, 1% BSA in PBS): antibody remaining on stent; type: physicochemical; settings: after approximately 10 days perfusion
Description: In still another aspect of the present invention as depicted in FIG. 11, coating layer 16 can be considered an adsorbent layer and/or an absorbent layer in which a bioactive material is attached thereto. In one particular example, device 10 is a stainless steel GR II™ stent in which the stainless steel base material 14 of structure 12 is coated with a polymer and, in particular, parylene. This adsorbent polymer layer 16 of parylene is approximately 230,000 Å thick. Bioactive material layer 18 of the antiplatelet GP IIb/IIIa antibody (AZ1) was passively loaded on adsorbent polymer layer 16. The polymer coated stainless steel stents were immersed for approximately 24 hours in a buffered aqueous solution of AZ1 antibody (1 mg/ml, pH=7.2) at 37° C. AZ1 is a monoclonal anti-rabbit platelet glycoprotein (GP) IIb/IIIa antibody.
In another example, c7E3 Fab as bioactive material layer 18 is attached to polymer coating layer 16. Bioactive material c7E3 Fab is a chimeric monoclonal antibody that acts upon the […] integrin on platelets to inhibit their aggregation. This antibody or receptor blocker can be used in humans intravenously to prevent thrombosis during coronary angioplasty. This receptor blocker is also known as ReoPro™ available from Eli Lilly, Indianapolis, Ind. […]

[9] = 400 μg paclitaxel+parylene N stents

Compound: CC(=O)O[C@H]1C(=O)[C@@]2(C)[C@H]([C@H](OC(=O)c3ccccc3)[C@]3(O)C[C@H](OC(=O)[C@H](O)[C@@H](NC(=O)c4ccccc4)c4ccccc4)C(C)=C1C3(C)C)[C@]1(OC(C)=O)CO[C@@H]1C[C@@H]2O [Paclitaxel, paclitaxel]
- in-stent restenosis compared with controls [1]: significantly reduced
- Area Stenosis ([2]; Low-Dose): 19.3 ± 9.45 %
- in-stent restenosis compared to control stents ([2]; high-dose): significantly reduced
- in-stent restenosis compared to control stents ([2]; low-dose): significantly reduced
- Late Loss ([3]; 5 μg paclitaxel on stent): 17.9 ± 20.3%
- MLD at F/U ([3]; 5 μg paclitaxel on stent): 1.74 ± 0.45 mm
- Mean Diameter at Follow-up ([3]; 5 μg paclitaxel on stent): 2.23 ± 0.51 mm
- Late Loss ([3]; 15 μg paclitaxel on stent): 20.1 ± 19.9%
- MLD at F/U ([3]; 15 μg paclitaxel on stent): 1.90 ± 0.38 mm
- Mean Diameter at Follow-up ([3]; 15 μg paclitaxel on stent): 2.15 ± 0.43 mm
- Late Loss ([3]; 35 μg paclitaxel on stent): 2.6 ± 7.5%
- MLD at F/U ([3]; 35 μg paclitaxel on stent): 2.42 ± 0.25 mm
- Mean Diameter at Follow-up ([3]; 35 μg paclitaxel on stent): 2.62 ± 0.21 mm
- Late Loss ([3]; 85 μg paclitaxel on stent): 1.6 ± 8.1%
- MLD at F/U ([3]; 85 μg paclitaxel on stent): 2.61 ± 0.15 mm
- Mean Diameter at Follow-up ([3]; 85 μg paclitaxel on stent): 2.77 ± 0.22 mm
- Late Loss ([3]; 400 μg paclitaxel + parylene N): 0.32 ± 7.1%
- MLD at F/U ([3]; 400 μg paclitaxel + parylene N): 2.75 ± 0.17 mm
- Mean Diameter at Follow-up ([3]; 400 μg paclitaxel + parylene N): 2.92 ± 0.22 mm
- Lumen Diameter ([4]; 5 μg paclitaxel on stent): 1.77 ± 0.34 mm
- Neointimal Thickness ([4]; 5 μg paclitaxel on stent): 0.31 ± 0.20 mm
- Outer Diameter ([4]; 5 μg paclitaxel on stent): 2.73 ± 0.28 mm
- Wall Thickness ([4]; 5 μg paclitaxel on stent): 0.48 ± 0.23 mm
- Lumen Diameter ([4]; 15 μg paclitaxel on stent): 1.87 ± 0.37 mm
- Neointimal Thickness ([4]; 15 μg paclitaxel on stent): 0.29 ± 0.19 mm
- Outer Diameter ([4]; 15 μg paclitaxel on stent): 2.41 ± 0.90 mm
- Wall Thickness ([4]; 15 μg paclitaxel on stent): 0.46 ± 0.22 mm
- Lumen Diameter ([4]; 35 μg paclitaxel on stent): 2.12 ± 0.52 mm
- Neointimal Thickness ([4]; 35 μg paclitaxel on stent): 0.19 ± 0.16 mm
- Outer Diameter ([4]; 35 μg paclitaxel on stent): 2.78 ± 0.32 mm
- Wall Thickness ([4]; 35 μg paclitaxel on stent): 0.33 ± 0.17 mm
- Lumen Diameter ([4]; 85 μg paclitaxel on stent): 2.40 ± 0.31 mm
- Neointimal Thickness ([4]; 85 μg paclitaxel on stent): 0.15 ± 0.08 mm
- Outer Diameter ([4]; 85 μg paclitaxel on stent): 2.96 ± 0.31 mm
- Wall Thickness ([4]; 85 μg paclitaxel on stent): 0.28 ± 0.10 mm
- Lumen Diameter ([4]; 400 μg paclitaxel + parylene N): 2.58 ± 0.19 mm
- Neointimal Thickness ([4]; 400 μg paclitaxel + parylene N): 0.12 ± 0.06 mm
- Outer Diameter ([4]; 400 μg paclitaxel + parylene N): 3.06 ± 0.17 mm
- Wall Thickness ([4]; 400 μg paclitaxel + parylene N): 0.24 ± 0.07 mm
- histologic sections with occasional small patches of luminal fibrin ([5]; 5 μg paclitaxel stents): none
- histologic sections with vessel wall hypocellularity and hyalinization ([5]; 5 μg paclitaxel stents): approximately 28%
- histologic sections with occasional small patches of luminal fibrin ([5]; 15 μg paclitaxel stents): none
- histologic sections with vessel wall hypocellularity and hyalinization ([5]; 15 μg paclitaxel stents): approximately 67%
- histologic sections with occasional small patches of luminal fibrin ([5]; 35 μg paclitaxel stents): approximately 50%
- histologic sections with vessel wall hypocellularity and hyalinization ([5]; 35 μg paclitaxel stents): over 80%
- histologic sections with occasional small patches of luminal fibrin ([5]; 85 μg paclitaxel stents): approximately 50%
- histologic sections with vessel wall hypocellularity and hyalinization ([5]; 85 μg paclitaxel stents): over 80%
- histologic sections with occasional small patches of luminal fibrin [5, 9]: approximately 50%
- histologic sections with vessel wall hypocellularity and hyalinization [5, 9]: over 80%
- safety problems related to the stents [6]: no safety problems
- Premature Deaths ([7]; 5 μg paclitaxel on stent): One pig (stents in LAD &
- Premature Deaths ([7]; 5 μg paclitaxel on stent, listed as paclitaxel): One pig
- Premature Deaths ([7]; 15 μg paclitaxel on stent): One pig (stents in LAD &
- Premature Deaths ([7]; 15 μg paclitaxel on stent, listed as paclitaxel): One pig
- Premature Deaths ([7]; 35 μg paclitaxel on stent): None
- Premature Deaths ([7]; 85 μg paclitaxel on stent): None
- Premature Deaths ([7]; 400 μg paclitaxel + parylene N): None

Compound: c7E3 Fab: chimeric monoclonal antibody acting on platelet GP IIb/IIIa integrin to inhibit aggregation
- loaded antibody remaining on the stent [8]: approximately half
